Reference: US9604975B2, “Indolyl-pyridone derivatives having checkpoint kinase 1 inhibitory activity” (Vernalis (R&D) Ltd., priority 2009, dated 2017)

Molecular target: T1, CHK1 (Homo sapiens, UniProt O14757)
T1 construct: His; purchased Invitrogen
T1 sequence (O14757 1-476): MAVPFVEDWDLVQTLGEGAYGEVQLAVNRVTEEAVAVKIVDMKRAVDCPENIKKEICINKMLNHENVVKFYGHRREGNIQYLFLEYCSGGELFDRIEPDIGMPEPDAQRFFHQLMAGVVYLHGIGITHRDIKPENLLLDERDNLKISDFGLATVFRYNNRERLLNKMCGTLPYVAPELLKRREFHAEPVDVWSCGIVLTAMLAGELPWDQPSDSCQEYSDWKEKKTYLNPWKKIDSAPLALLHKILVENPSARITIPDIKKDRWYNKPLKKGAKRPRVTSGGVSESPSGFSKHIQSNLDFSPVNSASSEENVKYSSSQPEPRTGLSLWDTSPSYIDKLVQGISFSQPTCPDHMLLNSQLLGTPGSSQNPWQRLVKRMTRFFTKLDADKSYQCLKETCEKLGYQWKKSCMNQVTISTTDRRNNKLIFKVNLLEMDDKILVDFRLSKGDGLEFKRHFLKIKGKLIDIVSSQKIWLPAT
Test: CHK1 Enzyme Assay (phosphorylation of Chktide peptide, 33P-ATP filter assay)
Type: biochemical
Settings: 12.5 nM His-CHK1, 0.01 mM ATP, 40 minutes at 30° C.; read-out: CHK1 Enzyme Activity (IC50 range)
Description: Assays for the CHK1 kinase activity were carried out by monitoring the phosphorylation of a synthetic peptide Chktide with the amino acid sequence, […]. The assay mixture containing the inhibitor and CHK1 enzyme was mixed together in a microtiter plate in a final volume of 50 μl and incubated for 40 minutes at 30° C.
The assay mixture contained 0.01 mM unlabeled ATP, 0.5 μCi ^33P-γ-ATP, 14.8 μM Chktide, 0.1 mg/mL BSA, 50 mM Hepes-NaOH pH 7.5 and 12.5 nM His-CHK1 (Invitrogen) enzyme. The reaction was stopped by adding 50 μL of 50 mM phosphoric acid. 90 μL of the mixture was transferred to a pre-wetted 96-well multi-screen MAPHNOB filtration plate (Millipore) and filtered on a vacuum manifold. The filter plate was washed with 3 successive additions of 200 μl 50 mM phosphoric acid and then with 100 μL methanol. The filtration plate was dried for 10 min at 65° C., scintillant added and phosphorylated peptide quantified in a scintillation counter (Trilux, PerkinElmer).

| SMILES | IC50 [nM] |
| --- | --- |
| O=C(Nc1cnn(Cc2cccnc2)c1)c1c[nH]c(=O)c(-c2cc3ccccc3[nH]2)c1 [Example 35, 5-(1H-Indol-2-yl)-6-oxo-1,6-dihydro-pyridine-3-carboxylic acid (1-pyridin-3-ylmethyl-1H-pyrazol-4-yl)-amide] | < 100 |
| Cc1ccc(Cn2cc(C(=O)Nc3c[nH]c(=O)c(-c4cc5cc(OCCN6CCCCC6)ccc5[nH]4)c3)cn2)cc1 [Example 115, 1-(4-Methyl-benzyl)-1H-pyrazole-4-carboxylic acid {6-oxo-5-[5-(2-piperidin-1-yl-ethoxy)-1H-indol-2-yl]-1,6-dihydro-pyridin-3-yl}-amide] | < 100 |
| CCN(CC)CCCOc1ccc2[nH]c(-c3cc(NC(=O)c4cnn(Cc5ccc(C)cc5)c4)c[nH]c3=O)cc2c1 [Example 123, 1-(4-Methyl-benzyl)-1H-pyrazole-4-carboxylic acid {5-[5-(3-diethylamino-propoxy)-1H-indol-2-yl]-6-oxo-1,6-dihydro-pyridin-3-yl}-amide] | < 100 |
| CCc1cccc(Cn2cc(C(=O)Nc3c[nH]c(=O)c(-c4cc5cc(OCCN6CC(C)OC(C)C6)ccc5[nH]4)c3)cn2)c1 (stereo not drawn) [Example 138, 1-(3-Ethyl-benzyl)-1H-pyrazole-4-carboxylic acid (5-{5-[2-(2,6-dimethyl-morpholin-4-yl)-ethoxy]1H-indol-2-yl}-6-oxo-1,6-dihydro-pyridin-3-yl)-amide] | < 100 |
| C[C@@H]1CN(Cc2cccc3[nH]c(-c4cc(NC(=O)c5cnn(Cc6ccccc6)c5)c[nH]c4=O)cc23)C[C@H](C)O1 [Example 109, 1-Benzyl-1H-pyrazole-4-carboxylic acid {5-[4-(cis-2,6-dimethyl-morpholin-4-ylmethyl)-1H-indol-2-yl]-6-oxo-1,6-dihydro-pyridin-3-yl}-amide] | < 100 |
| CC(C)c1ccc(Cn2cc(C(=O)Nc3c[nH]c(=O)c(-c4cc5cc(OCCN6CCCCC6)ccc5[nH]4)c3)cn2)cc1 [Example 152, 1-(4-Isopropylbenzyl)-1H-pyrazole-4-carboxylic acid {5-[5-(2-piperidin-1-ylethoxy)-1H-indol-2-yl)-6-oxo-1,6-dihydropyridin-3-yl}-amide] | < 100 |
| C[C@H](c1ccccc1)n1cc(C(=O)Nc2c[nH]c(=O)c(-c3cc4cc(CN5CCCCC5)ccc4[nH]3)c2)cn1 [Example 168, 1-((R)-1-Phenyl-ethyl)-1H-pyrazole-4carboxylic acid [6-oxo-5-(5-piperidin-1-ylmethyl-1H-indol-2-yl)-1,6-dihydro-pyridin-3-yl]-amide] | < 100 |
| CCc1cccc(Cn2cc(C(=O)Nc3c[nH]c(=O)c(-c4cc5cc(OCCN6CCCCC6)ccc5[nH]4)c3)cn2)c1 [Example 135, 1-(3-Ethyl-benzyl)-1H-pyrazole-4-carboxylic acid {6-oxo-5-[5-(2-piperidin-1-yl-ethoxy)-1H-indol-2-yl]-1,6-dihydro-pyridin-3-yl}-amide] | < 100 |
| O=C(Nc1c[nH]c(=O)c(-c2cc3cc(CN4CCC(F)CC4)ccc3[nH]2)c1)c1cnn(Cc2ccc(F)cc2)c1 [Example 81, 1-(4-Fluoro-benzyl)-1H-pyrazole-4-carboxylic acid {5-[5-(4-fluoro-piperidin-1-ylmethyl)-1H-indol-2-yl]-6-oxo-1,6-dihydro-pyridin-3-yl}-amide] | < 100 |
| CC1CN(Cc2ccc3[nH]c(-c4cc(NC(=O)c5cnn(Cc6ccccc6)c5)c[nH]c4=O)cc3c2)CC(C)O1 (stereo not drawn) [Example 69, 1-Benzyl-1H-pyrazole-4-carboxylic acid {5-[5-(2,6-dimethyl-morpholin-4-ylmethyl)-1H-indol-2-yl]-6-oxo-1,6-dihydro-pyridin-3-yl}-amide] | < 100 |
| CC(c1ccc(F)cc1)n1cc(C(=O)Nc2c[nH]c(=O)c(-c3cc4cc(CN5CCN(C)CC5)ccc4[nH]3)c2)cn1 (stereo not drawn) [Example 89, 1-[1-(4-Fluoro-phenyl)-ethyl]-1H-pyrazole-4-carboxylic acid {5-[5-(4-methylpiperazin-1-ylmethyl)-1H-indol-2-yl]-6-oxo-1,6-dihydro-pyridin-3-yl}-amide] | < 100 |
| O=C(Nc1c[nH]c(=O)c(-c2cc3cc(CN4CCC(O)CC4)ccc3[nH]2)c1)c1cnn(Cc2ccccc2)c1 [Example 60, 1-Benzyl-1H-pyrazole-4-carboxylic acid {5-[5-(4-hydroxy-piperidin-1-ylmethyl)-1H-indol-2-yl]-6-oxo-1,6-dihydro-pyridin-3-yl}-amide] | < 100 |
| O=C(Nc1c[nH]c(=O)c(-c2cc3ccccc3[nH]2)c1)c1cnn(Cc2cccc(C(F)(F)F)c2)c1 [Example 23, 1-(3-Trifluoromethyl-benzyl)-1H-pyrazole-4-carboxylic acid [5-(1H-indol-2-yl)-6-oxo-1,6-dihydro-pyridin-3-yl]-amide] | < 100 |
| CCN(CCO)Cc1ccc2[nH]c(-c3cc(NC(=O)c4cnn(Cc5ccc(Cl)cc5)c4)c[nH]c3=O)cc2c1 [Example 45, 1-(4-Chloro-benzyl)-1H-pyrazole-4-carboxylic acid [5-(5-{[ethyl-(2-hydroxy-ethyl)-amino]-methyl}-1H-indol-2-yl)-6-oxo-1,6-dihydro-pyridin-3-yl]-amide] | < 100 |

Second part, the compound after the results:

| IC50 [nM] | SMILES |
| --- | --- |
| < 100 | O=C(Nc1c[nH]c(=O)c(-c2cc3cc(CN4CCN(CCO)CC4)ccc3[nH]2)c1)c1cnn(Cc2ccccc2)c1 [Example 65, 1-Benzyl-1H-pyrazole-4-carboxylic acid (5-{5-[4-(2-hydroxy-ethyl)-piperazin-1-ylmethyl]-1H-indol-2-yl}-6-oxo-1,6-dihydro-pyridin-3-yl)-amide] |
| 100 to 500 | O=C(Nc1cnn(Cc2ccncc2)c1)c1c[nH]c(=O)c(-c2cc3ccccc3[nH]2)c1 [Example 36, 5-(1H-Indol-2-yl)-6-oxo-1,6-dihydro-pyridine-3-carboxylic acid (1-pyridin-4-ylmethyl-1H-pyrazol-4-yl)-amide] |
| < 100 | O=C(Nc1c[nH]c(=O)c(-c2cc3cc(CN4CCCCC4)ccc3[nH]2)c1)c1cnn(Cc2ccc(F)cc2)c1 [Example 80, 1-(4-Fluoro-benzyl)-1H-pyrazole-4-carboxylic acid [6-oxo-5-(5-piperidin-1-ylmethyl-1H-indol-2-yl)-1,6-dihydro-pyridin-3-yl]-amide] |
| < 100 | CCN(CCO)Cc1ccc2[nH]c(-c3cc(C(=O)Nc4cnn(Cc5ccc(F)c(F)c5)c4)c[nH]c3=O)cc2c1 [Example 102, 5-(5-{[Ethyl-(2-hydroxyethyl)amino]-methyl}-1H-indol-2yl)-6-oxo-1,6-dihydropyridine-3-carboxylic acid[1-(3,4-difluorobenzyl)-1H-pyrazol-4-yl]-amide] |
| < 100 | O=C(Nc1cnn(Cc2cccc(F)c2)c1)c1c[nH]c(=O)c(-c2cc3ccccc3[nH]2)c1 [Example 9, 5-(1H-Indol-2-yl)-6-oxo-1,6-dihydro-pyridine-3-carboxylic acid [1-(3-fluoro-benzyl)-1H-pyrazol-4-yl]-amide] |
| < 100 | CCN(CC)CCOc1ccc2[nH]c(-c3cc(NC(=O)c4cnn(Cc5ccccc5)c4)c[nH]c3=O)cc2c1 [Example 141, 1-Benzyl-1H-pyrazole-4-carboxylic acid {5-[5-(2-diethylamino-ethoxy)-1H-indol-2-yl]-6-oxo-1,6-dihydro-pyridin-3-yl}-amide] |
| < 100 | CCc1cccc(Cn2cc(C(=O)Nc3c[nH]c(=O)c(-c4cc5cc(OCCCN(CC)CC)ccc5[nH]4)c3)cn2)c1 [Example 136, 1-(3-Ethyl-benzyl)-1H-pyrazole-4-carboxylic acid {5-[5-(3-diethylamino-propoxy)-1H-indol-2-yl]-6-oxo-1,6-dihydro-pyridin-3-yl}-amide] |
| < 100 | CCc1cccc(Cn2cc(C(=O)Nc3c[nH]c(=O)c(-c4cc5cc(OCCCN(C)C)ccc5[nH]4)c3)cn2)c1 [Example 129, 1-(3-Ethyl-benzyl)-1H-pyrazole-4-carboxylic acid {5-[5-(3-dimethylamino-propoxy)-1H-indol-2-yl]-6-oxo-1,6-dihydro-pyridin-3-yl}-amide] |
| < 100 | Cc1[nH]c(=O)c(-c2cc3ccccc3[nH]2)cc1NC(=O)c1cnn(Cc2ccccc2)c1 [Example 31, 1-Benzyl-1H-pyrazole-4-carboxylic acid [5-(1H-indol-2-yl)-2-methyl-6-oxo-1,6-dihydro-pyridin-3-yl]-amide] |
| < 100 | CC1CN(CCOc2ccc3[nH]c(-c4cc(NC(=O)c5cnn(Cc6ccccc6)c5)c[nH]c4=O)cc3c2)CC(C)O1 (stereo not drawn) [Example 147, 1-Benzyl-1H-pyrazole-4-carboxylic acid (5-{5-[2-(2,6-dimethyl-morpholin-4-yl)-ethoxy]-1H-indol-2-yl}-6oxo-1,6-dihydro-pyridin-3-yl)-amide] |
